Test results taken from patent US20260241008A1, “COMPOSITION CONTAINING SELF-ASSEMBLED STRUCTURE AND FREEZE-DRIED PRODUCT THEREOF” (Resonac Corporation, priority 2023, published 2026).

Assay: Krafft point of TPNa aqueous solution
Type: physicochemical

- Krafft point (Kp): 16.2 °C
Compound: Cc1c(C)c2c(c(C)c1OP(=O)([O-])[O-])CCC(C)(CCCC(C)CCCC(C)CCCC(C)C)O2.[Na+].[Na+] (racemic) [TPNa, sodium salt of the dl-α-tocopheryl phosphate]
